{
  "source": "patent US20260053801A1",
  "about": "“METHOD FOR TREATING AUTOPHAGY DEPENDENT CANCER WITH A PIKFYVE INHIBITOR” (The Regents of the University of Michigan, priority 2023, published 2026)",
  "key": {"FASN and ACACA": {"tested_on": "FASN and ACACA", "experiment": "qPCR of FASN and ACACA in PDAC cell lines treated with KRAS-MAPK inhibitors", "format": "cell-based", "settings": "eight hours; PDAC cell lines with the relevant KRAS mutation", "experimental": "Total RNA was isolated from cells using the miRNeasy kit (Qiagen), and cDNA was synthesized from 1000 ng of total RNA using Maxima First Strand cDNA Synthesis Kit for RT-qPCR (Thermo Fisher Scientific). Quantitative real-time PCR was performed in triplicates using standard SYBR green reagents and protocols on a QuantStudio 5 Real-Time PCR system (Applied Biosystems). The target mRNA expression was quantified using the ΔΔCt method and normalized to ACTB (human) or Actb (murine) expression. All primers were designed using Primer 3 (http://frodo.wi.mit.edu/primer3/) and synthesized by Integrated DNA Technologies (Coralville)."}, "[1]": {"tested_on": "FASN and ACACA transcripts in AsPC1 cell-derived xenograft", "settings": "30 mg/kg MRTX1133 6 hours prior to tumor collection; cited from earlier work"}, "[2]": {"tested_on": "FASN and ACACA transcripts in AsPC1 cells", "settings": "MRTX1133 100 nM, 24 hours; cited from earlier work"}, "[3]": {"tested_on": "autophagic flux in Panc 04.03 cells", "experiment": "GFP-LC3-RFP-LC3ΔG autophagic flux probe assay in Panc 04.03 cells", "format": "cell-based, human", "settings": "for autophagic flux induced by torin-1: 4-hour pre-treatment, then torin-1 100 nM 24 hours; for autophagic flux induced by torin-1 / basal autophagic flux: apilimod 300 nM, ESK981 1000 nM, chloroquine", "from_the_text": "(§1) Generation of the autophagic flux probe in 7940B, Panc 04.03, and iKRAS was done according to the original author's instructions. Kaizuka, T. et al., Mol Cell 64, 835-849, doi:10.1016/j.molcel.2016.09.037 (2016). Briefly, cells were infected with pMRX-IP-GFP-LC3-RFP-LC3DG, which was a gift from Noboru Mizushima (Addgene plasmid #84572; http://n2t.net/addgene:84572; RRID:Addgene_84572). Following puromycin selection, single-cell clones were expanded and genotyped to ensure the absence of homologous recombination between two LC3 fragments during retrovirus integration.\n(§2) 15,000 cells were seeded in 96-well plates. After overnight incubation, cells were treated with the indicated compounds for 24 hours. […] Fluorescent signals were detected using the Infinite M1000 Pro plate reader (Tecan)."}, "[4]": {"tested_on": "autophagic flux in 7940B cells", "experiment": "GFP-LC3-RFP-LC3ΔG autophagic flux probe assay in 7940B cells", "format": "cell-based, mouse", "settings": "for basal autophagic flux / autophagic flux induced by torin-1: apilimod 100 nM, ESK981 1000 nM, chloroquine 50 μM; for autophagic flux induced by torin-1: torin-1 100 nM", "from_the_text": "as §1, §2"}, "7940B cells [5]": {"tested_on": "7940B cells", "experiment": "RNA-seq in 7940B cells", "format": "cell-based, mouse", "settings": "eight-hour treatment", "experimental": "RNA-seq libraries were prepared using 800 ng of total RNA. Ribosomal RNA were removed by enzymatic digestion of the specific probe-bound duplex rRNA, and then fragmented to around 200-300 bp with heat in fragmentation buffer (KAPA RNA Hyper+RiboErase HMR, Roche). Double-stranded cDNA was then synthesized by reverse transcription and underwent end-repair and ligation using New England Biolabs (NEB) adapters. Final library preparation was then prepared by amplification with 2×KAPA HiFI HotStart mix and NEB dual barcode. Library quality was measured on an Agilent 2100 Bioanalyzer (DNA 1000 chip) for concentration and product size. Paired-end libraries were sequenced with the Illumina NovaSeq, (2×151 nucleotide read length) with sequence coverage to 30-40 million paired reads. Reads were demultiplexed using Illumina's bcl2fastq conversion software v2.20. Transcripts were quantified by the alignment-free approach kallisto using index generated from mouse reference genome (mm10) and then summed to obtain gene level counts. Differential analysis was performed using limma-voom after TMM-normalization of gene level counts with calcNormFactors of edgeR. Genes with mean Transcripts Per Million (TPM) less than 1 in both control and treatment groups were considered as lowly expressed genes and excluded for differential analysis. […]"}, "7940B cells [6]": {"tested_on": "7940B cells", "experiment": "Targeted metabolomics in 7940B cells", "format": "cell-based, mouse", "settings": "apilimod 100 nM, ESK981 1000 nM", "experimental": "Polar metabolites from samples treated in biological triplicates were extracted using 80% v/v methanol/water and normalized using protein quantification from an additional sample from each condition. Equal estimated amounts of metabolites were dried using a SpeedVac vacuum concentrator, reconstituted in 50% v/v methanol in water, and analyzed by LC-MS as previously described. Data were analyzed as previously described with the Agilent Masshunter Workstation Quantitative Analysis for QQQ version 10.1 Build 10.1.733.0. No post-detection normalization was performed to avoid assuming linearity of signal. Heatmaps were generated using the Morpheus Matrix Visualization and analysis tool (https://software.broadinstitute.org/morpheus)."}, "[7]": {"settings": "Ikonomov et al. 2019; cited from earlier work"}, "cell surface MHC-I": {"tested_on": "cell surface MHC-I", "experiment": "Flow cytometry of cell surface MHC-I in mouse cancer lines", "format": "cell-based", "settings": "pancreatic (KPC1361); extended to 4T1, B16-F10, LLC"}, "mouse PIKfyve protein": {"target": "T1, mouse PIKfyve protein (Mus musculus, UniProt Q9Z1T6)", "T1 construct": "endogenous in cells; host or cells: 7940B (murine KPC pancreatic cancer cell line)", "T1 sequence (Q9Z1T6 whole entry)": "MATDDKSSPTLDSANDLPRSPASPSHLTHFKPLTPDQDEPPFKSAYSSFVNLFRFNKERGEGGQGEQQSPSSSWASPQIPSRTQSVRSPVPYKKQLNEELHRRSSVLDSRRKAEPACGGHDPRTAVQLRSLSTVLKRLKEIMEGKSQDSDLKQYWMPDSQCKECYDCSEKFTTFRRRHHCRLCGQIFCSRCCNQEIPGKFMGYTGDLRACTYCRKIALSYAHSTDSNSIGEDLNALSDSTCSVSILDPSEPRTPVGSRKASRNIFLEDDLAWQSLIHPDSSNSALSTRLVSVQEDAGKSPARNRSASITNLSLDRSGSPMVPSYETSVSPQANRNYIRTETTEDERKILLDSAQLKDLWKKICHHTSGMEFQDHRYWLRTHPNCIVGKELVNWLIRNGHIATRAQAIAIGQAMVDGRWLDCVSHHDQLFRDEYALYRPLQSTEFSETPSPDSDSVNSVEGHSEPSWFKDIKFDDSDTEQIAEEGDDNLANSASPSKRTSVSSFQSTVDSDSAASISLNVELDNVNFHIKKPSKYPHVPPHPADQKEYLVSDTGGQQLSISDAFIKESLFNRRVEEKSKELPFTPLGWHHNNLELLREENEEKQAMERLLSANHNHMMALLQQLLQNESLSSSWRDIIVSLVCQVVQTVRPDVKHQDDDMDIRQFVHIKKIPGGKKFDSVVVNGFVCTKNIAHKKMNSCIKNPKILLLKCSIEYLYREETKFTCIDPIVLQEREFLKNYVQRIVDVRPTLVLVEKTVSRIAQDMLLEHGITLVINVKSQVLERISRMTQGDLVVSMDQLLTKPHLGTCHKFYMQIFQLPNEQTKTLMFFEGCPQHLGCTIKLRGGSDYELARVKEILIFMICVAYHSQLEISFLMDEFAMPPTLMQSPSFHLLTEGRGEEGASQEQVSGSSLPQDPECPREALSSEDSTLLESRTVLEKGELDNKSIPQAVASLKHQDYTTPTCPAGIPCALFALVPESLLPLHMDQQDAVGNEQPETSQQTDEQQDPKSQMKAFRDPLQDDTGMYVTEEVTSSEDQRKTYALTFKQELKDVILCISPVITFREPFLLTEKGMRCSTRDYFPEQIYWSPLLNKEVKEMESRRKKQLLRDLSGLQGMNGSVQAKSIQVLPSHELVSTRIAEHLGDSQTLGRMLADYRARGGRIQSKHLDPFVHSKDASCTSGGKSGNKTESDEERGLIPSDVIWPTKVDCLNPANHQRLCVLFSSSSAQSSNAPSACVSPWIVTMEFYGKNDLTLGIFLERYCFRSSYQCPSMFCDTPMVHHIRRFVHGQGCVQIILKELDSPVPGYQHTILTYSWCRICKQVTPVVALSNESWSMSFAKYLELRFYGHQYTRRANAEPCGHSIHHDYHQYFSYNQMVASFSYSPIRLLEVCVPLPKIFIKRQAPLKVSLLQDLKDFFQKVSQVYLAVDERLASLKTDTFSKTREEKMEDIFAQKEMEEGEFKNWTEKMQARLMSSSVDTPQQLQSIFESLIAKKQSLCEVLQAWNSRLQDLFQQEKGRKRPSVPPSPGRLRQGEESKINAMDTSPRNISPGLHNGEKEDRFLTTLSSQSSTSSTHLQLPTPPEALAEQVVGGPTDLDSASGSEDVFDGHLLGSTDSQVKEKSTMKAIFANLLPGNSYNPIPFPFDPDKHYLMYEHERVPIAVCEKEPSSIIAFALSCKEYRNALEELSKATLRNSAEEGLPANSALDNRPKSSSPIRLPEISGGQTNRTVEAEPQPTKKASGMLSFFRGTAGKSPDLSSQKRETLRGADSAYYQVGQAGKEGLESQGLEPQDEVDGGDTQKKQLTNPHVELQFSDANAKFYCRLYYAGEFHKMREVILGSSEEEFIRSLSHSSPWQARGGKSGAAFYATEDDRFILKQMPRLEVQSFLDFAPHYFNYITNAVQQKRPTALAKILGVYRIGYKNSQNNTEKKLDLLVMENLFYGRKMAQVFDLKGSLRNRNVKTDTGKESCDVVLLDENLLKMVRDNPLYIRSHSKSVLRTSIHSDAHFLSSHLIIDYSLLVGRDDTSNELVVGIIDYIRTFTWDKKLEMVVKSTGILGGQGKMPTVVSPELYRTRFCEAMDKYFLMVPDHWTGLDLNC", "experiment": "Cellular Thermal Shift Assay (CETSA) in 7940B cells", "format": "binding", "settings": "1000 nM, 2 hours", "experimental": "CETSA was performed according to previously described protocols^71. Briefly, 7940B cells were seeded overnight and were subsequently treated with DMSO, ESK981 (1000 nM), or apilimod (1000 nM) for 2 hours. Cells were then harvested and made into single-cell suspensions of 1×10^6 cells each in […] of PBS containing protease inhibitors. The suspensions were then subjected to heating and cooling cycles (two cycles of 3-minute heating followed by 3-minute cooling at room temperature) using a thermal cycler. Cells were then lysed with three cycles of freeze-thawing in liquid nitrogen. Lysates were then analyzed using immunoblot analysis as previously described."}, "7940B cells [8]": {"tested_on": "7940B cells", "experiment": "Targeted lipidomics in 7940B cells", "format": "cell-based, mouse", "settings": "24 hours; apilimod 100 nM, ESK981 1000 nM", "experimental": "Sample preparation: Samples for lipidomics analyses were prepared according to the automatic dual-metabolite/lipid sample preparation workflow described in the Agilent application note 5994-5065EN. Briefly, 1 million cells were washed in PBS and lysed with 1:1 trifluoroethanol/water at room temperature. Lysates were transferred to microcentrifuged tubes, incubated for 10 minutes, and then centrifuged at 250×g for 30 seconds. Samples were then dehydrated under reduced pressure with no heat. […]\nLC-MS/MS analysis: samples were analyzed on an Agilent 1290 Infinity II Bio LC ultra-high performed liquid chromatography (UPLC) system consisting of a high-pressure binary pump, multicolumn thermostat, and a temperature controlled multi-sampler. Samples were analyzed in randomized order on an Agilent 649C triple quadrupole mass spectrometer equipped with an Agilent Jet Stream Dual ESI ion source. Specifically, samples were analyzed with the reverse phase LC-MS/MS method reported in the Agilent application note 5994-3747EN. After acquisition, datasets were processed with MassHunter Quantitative analysis software and subsequently imported into Mass Profiler Professional (MPP) for chemometric analysis. […]"}, "[9]": {"tested_on": "autophagic flux in iKras cells", "experiment": "Autophagic flux probe assay in iKRAS 9805 cells", "format": "cell-based", "settings": "doxycycline withdrawal; apilimod 100 nM, ESK981 1000 nM, chloroquine 10 μM, 24 hours", "from_the_text": "as §1, §2"}, "7940B cells [10]": {"tested_on": "7940B cells", "experiment": "Real-time oxygen consumption rate (Resipher) in 7940B cells", "format": "cell-based, mouse", "settings": "apilimod 100 nM, ESK981 1000 nM, bafilomycin 100 nM, chloroquine 100 μM", "experimental": "Real-time monitoring of basal oxygen consumption rate was performed using a Resipher (Lucid Scientific). […] Immediately following treatment with an additional 50 μl of medium (for a total of 100 μl), OCR monitoring was started by placing the Resipher device on the cells, which was incubated at 37° C. and 5% CO2 for 24 hours."}, "[11]": {"tested_on": "7 human and mouse PDAC cell lines", "settings": "7 days, CellTiter-Glo", "experimental": "Cells were plated into 96-well plates and incubated overnight at 37° C. in 5% CO2. The following day, a serial dilution of the indicated compounds was prepared in culture medium and added to the plate. The cells were then further incubated for 5 days (experiments involving MRTX1133 or trametinib) or 7 days (all other experiments). Subsequently, the CellTiter-Glo assay (Promega), was then performed according to the manufacturer's instructions. The luminescence signal was acquired using an Infinite M1000 Pro plate reader (Tecan), and the data were analyzed using GraphPad Prism 10 (GraphPad Software Inc.)."}, "[12]": {"settings": "24-hour treatment, labeled doses"}, "[13]": {"settings": "MRTX1133 300 nM or trametinib 25 nM, 24 hours"}},
  "note": "Entries after “also recorded” stand apart in the source; their conditions may differ.",
  "data": [
    {"compound": "C#Cc1c(F)ccc2cc(O)cc(-c3ncc4c(N5CC6CCC(C5)N6)nc(OC[C@@]56CCCN5C[C@H](F)C6)nc4c3F)c12", "note": "[MRTX1133]", "values": [
      {"measurement": "transcription of FASN and ACACA", "setting": "FASN and ACACA", "value": "decreased transcription of FASN and ACACA"},
      {"measurement": "FASN and ACACA transcripts in vivo", "setting": "[1]", "value": "decreases FASN and ACACA transcripts"},
      {"measurement": "FASN and ACACA transcripts in vitro", "setting": "[2]", "value": "decreases FASN and ACACA transcripts"},
      {"measurement": "autophagy upon acute KRAS G12D inhibition", "setting": "[3]; [12]", "value": "upregulate autophagy"},
      {"measurement": "autophagic flux upon KRAS-MAPK inhibition", "setting": "[3]; [13]", "value": "induced autophagic flux"},
      {"measurement": "autophagy upon acute KRAS G12D inhibition", "setting": "[4]; [12]", "value": "upregulate autophagy"},
      {"measurement": "autophagic flux upon KRAS-MAPK inhibition", "setting": "[4]; [13]", "value": "induced autophagic flux"}
    ]},
    {"compound": "Cc1cccc(/C=N/Nc2cc(N3CCOCC3)nc(OCCc3ccccn3)n2)c1", "note": "[apilimod, N-[(E)-(3-methylphenyl)methylideneamino]-6-morpholin-4-yl-2-(2-pyridin-2-ylethoxy)pyrimidin-4-amine]", "values": [
      {"measurement": "gene expression changes", "setting": "7940B cells [5]", "value": "concordant gene expression changes"},
      {"measurement": "most upregulated pathways", "setting": "7940B cells [5]", "value": "cholesterol homeostasis, MTORC1 signaling, and fatty acid metabolism"},
      {"measurement": "glycolytic metabolites", "setting": "7940B cells [6]; eight hours", "value": "dramatic depletion of glycolytic metabolites"},
      {"measurement": "citrate level", "setting": "7940B cells [6]; three hours", "value": "decrease in citrate"},
      {"measurement": "in vivo pharmacokinetics", "setting": "[7]", "value": "poor in vivo pharmacokinetics"},
      {"measurement": "autophagic flux induced by torin-1", "setting": "[3]", "value": "decreased"},
      {"measurement": "basal autophagic flux", "setting": "[3]", "value": "decreased"},
      {"measurement": "cell surface expression of MHC-I", "setting": "cell surface MHC-I", "value": "increased cell surface expression of MHC-I"},
      {"measurement": "basal autophagic flux", "setting": "[4]; 24 hours", "value": "decreased"},
      {"measurement": "autophagic flux induced by torin-1", "setting": "[4]", "value": "decreased"},
      {"measurement": "binding / stabilization of PIKfyve (CETSA)", "setting": "mouse PIKfyve protein", "value": "bind to mouse PIKfyve protein; also recorded: stabilization of PIKfyve"},
      {"measurement": "cellular lipid landscape", "setting": "7940B cells [8]", "value": "induced significant changes in the cellular lipid landscape"}
    ]},
    {"compound": "CCN(CC)CCCC(C)Nc1ccnc2cc(Cl)ccc12", "note": "(centres unmarked) [chloroquine]", "values": [
      {"measurement": "increase in autophagic flux upon Kras OFF", "setting": "[9]", "value": "attenuated"},
      {"measurement": "OCR through 24 hours of treatment", "setting": "7940B cells [10]", "value": "significantly decreased OCR"},
      {"measurement": "half-maximal inhibitory concentrations (IC50), cell viability", "setting": "[11]", "value": "much higher"},
      {"measurement": "autophagic flux induced by torin-1", "setting": "[3]", "value": "decreased"},
      {"measurement": "basal autophagic flux", "setting": "[3]", "value": "decreased"},
      {"measurement": "basal autophagic flux", "setting": "[4]; 24 hours", "value": "decreased"},
      {"measurement": "autophagic flux induced by torin-1", "setting": "[4]", "value": "decreased"}
    ]}
  ]
}
